Data taken from ChEMBL document CHEMBL4138125, “Recent advances in discovery and development of natural products as source for anti-Parkinson's disease lead compounds” (2017).

Legend:
Type in all cases: functional
[1] = Neuroprotective activity in OF1/SPF […] brain dopaminergic neurons assessed as suppression of long-term rotenone-induced cell death at 0.1 to 10 uM incubated concomitantly with rotenone from days 6 to 12
[2] = Neuroprotective activity in OF1/SPF […] brain dopaminergic neurons assessed as suppression of MPP+-induced cell death at 0.1 to 10 uM pre-incubated for 4 days tarting from day 8 before MPP+ challenge for 48 hrs
[3] = Neuroprotective activity in OF1/SPF […] brain dopaminergic neurons assessed as suppression of short-term rotenone -induced cell death at 0.1 to 10 uM pre-incubated for 4 days starting from day 8 before rotenone challenge for 48 hrs

Molecule `CC1=CC(=O)C(C(C)C)=CC1=O` [THYMOQUINONE] has an Activity [1] of 24%, an Activity [2] of 40% and an Activity [3] of 33%.
